Assay results published in PubChem BioAssay (NCI).
Values joined by “and” are separate entries in the source; they are usually repeats but may differ in a detail not shown here. Equal values may be shown once.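 Cells were grown in 96-well plates and exposed to each compound for 48 hours at five concentrations; endpoints were interpolated linearly between bracketing concentrations, or set to the highest concentration if not reached. At the GI50, growth is halved. TGI marks complete inhibition of growth.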

What was measured:
Assay in all cases: growth of human tumour cells (NCI), 48 h
[1] = system: NCI-H522 lung
[2] = system: MCF7 breast
[3] = system: CAKI-1 renal
[4] = system: BT-549 breast
[5] = system: UACC-257 melanoma
[6] = system: OVCAR-4 ovarian
[7] = system: OVCAR-8 ovarian
[8] = system: ACHN renal
[9] = system: KM12 colon
[10] = system: SF-539 CNS

Row | SMILES | TGI [1] [µM] | TGI [2] [µM] | TGI [3] [µM] | TGI [4] [µM] | TGI [5] [µM] | TGI [6] [µM] | TGI [7] [µM] | TGI [8] [µM] | TGI [9] [µM] | TGI [10] [µM] | GI50 [2] [µM] | GI50 [3] [µM] | GI50 [10] [µM] | GI50 [5] | GI50 [6] [µM] | GI50 [7] [µM] | GI50 [8] [µM] | GI50 [9] [µM]
1 | CCOC(=O)/C=C(/C=C\COC1CCCCO1)c1ccccc1 (configuration not stated) | 83.5 | > 100 | > 100 | > 100 | > 100 | > 100 | 59.9 | > 100 | 79.3 |  |  |  |  |  |  |  |  | 
2 | C=C(C)[C@H]1CC(=O)/C(C)=C\CC/C(C)=C/CC[C@@]2(C)O[C@@H]2C1 |  |  | 9.41 | > 100 | > 100 | 75.3 | > 100 | 87.3 | 44.3 | 42.2 |  |  |  |  |  |  |  | 
3 | O=C1/C(=C/c2ccncc2)C(n2cccc2)c2c(Br)sc(Br)c21 (configuration not stated) | 30.5 | 12.7 | 10.9 | 16.8 | 5.03 |  | 5.82 | 17.1 | 24.7 | 17.1 |  |  |  |  |  |  |  | 
4 | CCOC(=O)Cn1nnc2cc(Nc3c(C)[n+]([O-])c4cc(F)c(OCC)cc4[n+]3[O-])ccc21 | > 100 | > 100 | > 100 |  | > 100 | > 100 | > 100 | > 100 | > 100 | > 100 |  |  |  |  |  |  |  | 
5 | CCOc1snc(C(Cl)(Cl)Cl)c1Cl |  | 78.9 | 83.7 | 70.6 | 33.9 | > 100 | 94.4 | > 100 | 56.7 | > 100 |  |  |  |  |  |  |  | 
6 | CCN(CCCCCCCCCCN1CC(=O)N(CCCCCCCCCCN(CC)Cc2ccccc2OC)CC1=O)Cc1ccccc1OC |  | 2.81 | 3.15 |  | 3.34 | 6.59 | 3.29 | 6.82 | 2.24 | 3.33 | 1.2 | 1.57 | 1.58 | 1.7 µM | 1.77 | 1.47 | 2.36 | 1.03
7 | O=[N+]([O-])/C(Cl)=C(/C(Cl)=C(Cl)Cl)N1CCCCC1 | 23.2 | 17.4 | 24.9 |  |  | 27.5 | 22.2 | 30.7 | 27.6 | 31.9 |  |  |  |  |  |  |  | 
8 | N#C/C(=C\c1cccc(Br)c1)c1nc2ccccc2c(=O)[nH]1 | > 100 | > 100 | > 100 |  | > 100 | > 100 | > 100 | > 100 | > 100 | > 100 |  |  |  |  |  |  |  | 
9 | COc1ccc(C2Oc3c(OC)cc(CCCO)cc3C2CO)cc1OC (configuration not stated) | > 100 | > 100 |  | > 100 | > 100 | > 100 | > 100 | > 100 | > 100 | > 100 |  |  |  | 49.9 µM and 21.9 µM |  |  |  | 
10 | Cc1nc(SCC(N)=O)c2sc(=S)n(-c3ccccc3)c2n1 | > 10 | > 10 | > 10 |  | > 10 | > 10 | > 10 | > 10 | > 10 | > 10 |  |  |  |  |  |  |  | 
11 | NCCN(CCN(C(=O)Nc1ccccc1)c1ccccc1)C(=O)Nc1ccccc1 | 41.1 | 46.6 |  | 69.4 | 36.4 |  | 52.2 | 59.9 |  |  |  |  |  |  |  |  |  | 
12 | CNC(=S)NNc1ncnc2c1c(-c1ccc(Cl)cc1)cn2-c1ccc(C)cc1 | 20.7 |  | 23.2 | 29.2 | 27 | 37.6 | 31.5 | 22.8 | 22 | 29.8 |  |  |  |  |  |  |  | 
13 | O=C1CC(c2ccccc2Cl)C2(C(=O)NC(=O)NC2=O)C(c2ccccc2Cl)C1 (configuration not stated) | > 100 | > 100 |  | > 100 | > 100 | > 100 | > 100 | > 100 | > 100 | > 100 |  |  |  |  |  |  |  | 
14 | CCCCCCc1cc2cc(-c3csc(-c4ccc(OC)cc4)n3)c(=O)oc2cc1O |  | 53.2 | 20 | 7.38 | 32.6 | 7.39 |  | 25.1 | 68.2 | 25.6 |  |  |  |  |  |  |  | 
15 | CCCCCCCCCCCCNC(=O)CCC(NC(=O)c1ccc(N(C)Cc2cnc3nc(N)nc(N)c3n2)cc1)C(=O)NCCCCCCCCCCCC (configuration not stated) | > 100 | > 100 |  | > 100 | > 100 | > 100 | > 100 | > 100 | > 100 | > 100 |  |  |  |  |  |  |  | 
16 | Clc1cc(C(c2cc(Cl)sc2Cl)c2cc(Cl)sc2Cl)c(Cl)s1 | > 100 | > 100 | > 100 |  | > 100 | > 100 | > 100 | > 100 | > 100 | > 100 |  |  |  |  |  |  |  | 
17 | CCCO/N=[N+](\[O-])N(CC)CC | > 100 |  |  |  | > 100 |  | > 100 | > 100 | > 100 | > 100 |  |  |  |  |  |  |  | 
